Legend:
[1] = test system: MHC I, MHC II, PD-L1, IFNγ receptors, TNF receptors, DR5; experiment: Cell-surface marker expression after drug treatment; type: cell-based, mouse
CD8^+ T cells = experiment: Peptide:H-2K^b tetramer staining of tumor-draining lymph nodes; type: in vivo, mouse; settings: B16-F10 tumor-bearing mice, day 14
[2] = test system: lung and colonic tissue, splenic T cells; experiment: RNA-seq of non-tumor tissues from indisulam-treated animals; type: in vivo, mouse
Procedure: Bulk lung and colon were homogenized using a Qiagen TissueRuptor. For all tissues and cell types, RNA was extracted using an RNeasy kit (Qiagen, Frederick, Md.) and quantified using a NanoDrop 8000 (ThermoFisher Scientific). A minimum of 500 ng of high-quality RNA (as determined by Agilent Bioanalyzer) per sample or replicate was used for library preparation. Poly(A)-selected, strand-specific (dUTP method) Illumina libraries were prepared with a modified TruSeq protocol and sequenced on the Illumina HiSeq 2000 (˜100M 2×101 bp paired-end reads per sample or replicate).
RNA-seq analysis was performed as previously described (Dvinge, H., et al. (2014). Sample processing obscures cancer-specific alterations in leukemic transcriptomes. Proc Natl Acad Sci USA 111, 16802-16807, incorporated herein by reference in its entirety). […] Aligned reads from these two mapping steps were merged to generate final BAM files for all subsequent analyses.
MISO v2.0 was used to quantify all expression of isoforms arising from exon skipping (cassette exons), competing 5′ splice site selection, competing 3′ splice site selection, and annotated intron retention. […]

[3] = test system: B16-F10, MC38, and CT26 cells; experiment: In vitro growth after ex vivo indisulam treatment and drug washout; type: cell-based, mouse; settings: ex vivo 1 μM for four days followed by drug washout
Procedure: Unless otherwise specified, cell lines were treated with splicing inhibitors at the indicated concentrations for 96 hours in vitro, harvested and washed three times with PBS in excess to remove all drug, and then used for downstream analyses and/or subsequent studies, including phenotyping, RNA-seq analyses, continued growth in vitro, or tumor challenge in vivo into syngeneic animals.

`NS(=O)(=O)c1ccc(S(=O)(=O)Nc2cccc3c(Cl)c[nH]c23)cc1` [indisulam] was tested, and the “cell-surface expression of MHC I, MHC II, PD-L1, or cytokine or death receptors” value [1] was “did not change”, the “frequencies of CD8^+ T cells recognizing splicing-derived peptides in tumor DLN” value (CD8^+ T cells) was “increased frequencies of CD8^+ T cells” and the “splicing changes in lung, colonic tissue and splenic T cells” value [2] was “only mild changes in splicing”. The “subsequent cell proliferation or apoptosis” value [3] was “minimal effects”.

— patent US20230190707A1, “COMPOSITIONS AND METHODS FOR ENHANCING CANCER IMMUNOTHERAPY” (FRED HUTCHINSON CANCER CENTER, priority 2020, published 2023)
